Experimental data: patent US8222278B2, “Treatment of attention-deficit/hyperactivity disorder” (Abbott Laboratories, priority 2008, dated 2012)

System: adults with ADHD
Experiment: Study A: treatment-emergent adverse events (safety dataset)
Description: During each visit, blood pressure, heart rate, weight, medication accountability and tolerability, and adverse effects were assessed.
The safety dataset consisted of all subjects who took at least one dose of study drug. The reasons for discontinuation and the treatment-emergent adverse events were summarized by the treatment under which the discontinuation or event was reported.
Treatment-emergent adverse events were those that began or worsened following the first dose of study drug in Period 1. Adverse event monitoring was conducted at each study visit and until 30 days following discontinuation of study drug. Other routine safety assessments included vital signs, electrocardiograms, physical examinations, brief neurological examinations and laboratory tests.

SMILES: Clc1cc(N2C[C@@H]3CN[C@@H]3C2)cnc1Cl [ABT-894, 3-(5,6-Dichloro-pyridin-3-yl)-1S,5S-3,6-diazabicyclo[3.2.0]heptane]
- Any Adverse Event, % of subjects (ABT-894 1 mg QD, N = 46): (69.6) %
- Any Adverse Event, number of subjects (ABT-894 1 mg QD, N = 46): 32 subjects
- Decreased appetite, % of subjects (ABT-894 1 mg QD, N = 46): (0) %
- Decreased appetite, number of subjects (ABT-894 1 mg QD, N = 46): 0 subjects
- Diarrhea, % of subjects (ABT-894 1 mg QD, N = 46): (0) %
- Diarrhea, number of subjects (ABT-894 1 mg QD, N = 46): 0 subjects
- Dizziness, % of subjects (ABT-894 1 mg QD, N = 46): (4.3) %
- Dizziness, number of subjects (ABT-894 1 mg QD, N = 46): 2 subjects
- Dry mouth, % of subjects (ABT-894 1 mg QD, N = 46): (4.3) %
- Dry mouth, number of subjects (ABT-894 1 mg QD, N = 46): 2 subjects
- Fatigue, % of subjects (ABT-894 1 mg QD, N = 46): (4.3) %
- Fatigue, number of subjects (ABT-894 1 mg QD, N = 46): 2 subjects
- Feeling hot and cold, % of subjects (ABT-894 1 mg QD, N = 46): (0) %
- Feeling hot and cold, number of subjects (ABT-894 1 mg QD, N = 46): 0 subjects
- Feeling jittery, % of subjects (ABT-894 1 mg QD, N = 46): (0) %
- Feeling jittery, number of subjects (ABT-894 1 mg QD, N = 46): 0 subjects
- Headache, % of subjects (ABT-894 1 mg QD, N = 46): (8.7) %
- Headache, number of subjects (ABT-894 1 mg QD, N = 46): 4 subjects
- Lethargy, % of subjects (ABT-894 1 mg QD, N = 46): (0) %
- Lethargy, number of subjects (ABT-894 1 mg QD, N = 46): 0 subjects
- Muscle Strain, % of subjects (ABT-894 1 mg QD, N = 46): (6.5) %
- Muscle Strain, number of subjects (ABT-894 1 mg QD, N = 46): 3 subjects
- Nasal congestion, % of subjects (ABT-894 1 mg QD, N = 46): (0) %
- Nasal congestion, number of subjects (ABT-894 1 mg QD, N = 46): 0 subjects
- Nausea, % of subjects (ABT-894 1 mg QD, N = 46): (4.3) %
- Nausea, number of subjects (ABT-894 1 mg QD, N = 46): 2 subjects
- Parathesia, % of subjects (ABT-894 1 mg QD, N = 46): (0) %
- Parathesia, number of subjects (ABT-894 1 mg QD, N = 46): 0 subjects
- Sleep disturbances, % of subjects (ABT-894 1 mg QD, N = 46): (4.3) %
- Sleep disturbances, number of subjects (ABT-894 1 mg QD, N = 46): 2 subjects
- Somnolence, % of subjects (ABT-894 1 mg QD, N = 46): (13.0) %
- Somnolence, number of subjects (ABT-894 1 mg QD, N = 46): 6 subjects
- Upper RTI, % of subjects (ABT-894 1 mg QD, N = 46): (2.2) %
- Upper RTI, number of subjects (ABT-894 1 mg QD, N = 46): 1 subjects
- Vomiting, % of subjects (ABT-894 1 mg QD, N = 46): (0) %
- Vomiting, number of subjects (ABT-894 1 mg QD, N = 46): 0 subjects
- Any Adverse Event, % of subjects (ABT-894 2 mg QD, N = 42): (61.9) %
- Any Adverse Event, number of subjects (ABT-894 2 mg QD, N = 42): 26 subjects
- Decreased appetite, % of subjects (ABT-894 2 mg QD, N = 42): (0) %
- Decreased appetite, number of subjects (ABT-894 2 mg QD, N = 42): 0 subjects
- Diarrhea, % of subjects (ABT-894 2 mg QD, N = 42): (4.8) %
- Diarrhea, number of subjects (ABT-894 2 mg QD, N = 42): 2 subjects
- Dizziness, % of subjects (ABT-894 2 mg QD, N = 42): (9.5) %
- Dizziness, number of subjects (ABT-894 2 mg QD, N = 42): 4 subjects
- Dry mouth, % of subjects (ABT-894 2 mg QD, N = 42): (0) %
- Dry mouth, number of subjects (ABT-894 2 mg QD, N = 42): 0 subjects
- Fatigue, % of subjects (ABT-894 2 mg QD, N = 42): (2.4) %
- Fatigue, number of subjects (ABT-894 2 mg QD, N = 42): 1 subjects
- Feeling hot and cold, % of subjects (ABT-894 2 mg QD, N = 42): (0) %
- Feeling hot and cold, number of subjects (ABT-894 2 mg QD, N = 42): 0 subjects
- Feeling jittery, % of subjects (ABT-894 2 mg QD, N = 42): (0) %
- Feeling jittery, number of subjects (ABT-894 2 mg QD, N = 42): 0 subjects
- Headache, % of subjects (ABT-894 2 mg QD, N = 42): (11.9) %
- Headache, number of subjects (ABT-894 2 mg QD, N = 42): 5 subjects
- Lethargy, % of subjects (ABT-894 2 mg QD, N = 42): (0) %
- Lethargy, number of subjects (ABT-894 2 mg QD, N = 42): 0 subjects
- Muscle Strain, % of subjects (ABT-894 2 mg QD, N = 42): (0) %
- Muscle Strain, number of subjects (ABT-894 2 mg QD, N = 42): 0 subjects
- Nasal congestion, % of subjects (ABT-894 2 mg QD, N = 42): (0) %
- Nasal congestion, number of subjects (ABT-894 2 mg QD, N = 42): 0 subjects
- Nausea, % of subjects (ABT-894 2 mg QD, N = 42): (14.3) %
- Nausea, number of subjects (ABT-894 2 mg QD, N = 42): 6 subjects
- Parathesia, % of subjects (ABT-894 2 mg QD, N = 42): (0) %
- Parathesia, number of subjects (ABT-894 2 mg QD, N = 42): 0 subjects
- Sleep disturbances, % of subjects (ABT-894 2 mg QD, N = 42): (14.3) %
- Sleep disturbances, number of subjects (ABT-894 2 mg QD, N = 42): 6 subjects
- Somnolence, % of subjects (ABT-894 2 mg QD, N = 42): (0) %
- Somnolence, number of subjects (ABT-894 2 mg QD, N = 42): 0 subjects
- Upper RTI, % of subjects (ABT-894 2 mg QD, N = 42): (7.1) %
- Upper RTI, number of subjects (ABT-894 2 mg QD, N = 42): 3 subjects
- Vomiting, % of subjects (ABT-894 2 mg QD, N = 42): (2.4) %
- Vomiting, number of subjects (ABT-894 2 mg QD, N = 42): 1 subjects
- Any Adverse Event, % of subjects (ABT-894 4 mg BID, N = 46): (54.3) %
- Any Adverse Event, number of subjects (ABT-894 4 mg BID, N = 46): 25 subjects
- Decreased appetite, % of subjects (ABT-894 4 mg BID, N = 46): (0) %
- Decreased appetite, number of subjects (ABT-894 4 mg BID, N = 46): 0 subjects
- Diarrhea, % of subjects (ABT-894 4 mg BID, N = 46): (2.2) %
- Diarrhea, number of subjects (ABT-894 4 mg BID, N = 46): 1 subjects
- Dizziness, % of subjects (ABT-894 4 mg BID, N = 46): (2.2) %
- Dizziness, number of subjects (ABT-894 4 mg BID, N = 46): 1 subjects
- Dry mouth, % of subjects (ABT-894 4 mg BID, N = 46): (2.2) %
- Dry mouth, number of subjects (ABT-894 4 mg BID, N = 46): 1 subjects
- Fatigue, % of subjects (ABT-894 4 mg BID, N = 46): (8.7) %
- Fatigue, number of subjects (ABT-894 4 mg BID, N = 46): 4 subjects
- Feeling hot and cold, % of subjects (ABT-894 4 mg BID, N = 46): (0) %
- Feeling hot and cold, number of subjects (ABT-894 4 mg BID, N = 46): 0 subjects
- Feeling jittery, % of subjects (ABT-894 4 mg BID, N = 46): (0) %
- Feeling jittery, number of subjects (ABT-894 4 mg BID, N = 46): 0 subjects
- Headache, % of subjects (ABT-894 4 mg BID, N = 46): (8.7) %
